What was measured:
HIV-1 Y181C variant [1] = conditions: ref 7b, cited from earlier work
[2] = system: HIV-1 strains with Tyr181Cys (Y181C) mutation; conditions: cited from earlier work
[3] = observed; cited from earlier work
[4] = system: HIV-1 Y181C combined with Lys103Asn; conditions: cited from earlier work
HIV-1 Y181C variant [5] = type: cell-based; conditions: relative to 1f

In the case of `N#Cc1ccc(Nc2ncc(Cc3c(F)cccc3F)o2)cc1` [Compound 1a], the “activity towards a Y181C-containing strain” value (HIV-1 Y181C variant [1]; earlier work) is given as “no activity”.

In the case of `Cc1ccnc2c1NC(=O)c1cccnc1N2C1CC1` [nevirapine], the “activity towards HIV-1 strains with Y181C mutation” value [2] is listed as “inactive”.

For `c1ccc(C2CC2)cc1` [cyclopropylbenzene], the “octanol/water log P” value [3] is given as 3.3.

For `Fc1cccc(F)c1Cc1cnc(Nc2ccc(Oc3cccnc3)c(Cl)c2)o1` [Compound 2a], the EC50 (HIV-1 Y181C variant [1]; read-out: EC50 for the Y181C variant, earlier work) is given as 3000 nM.

In the case of `CC(C)Nc1cccnc1N1CCN(C(=O)c2cc3cc(NS(C)(=O)=O)ccc3[nH]2)CC1` [delavirdine], the “activity towards HIV-1 strains with Y181C mutation” value [2] is listed as “inactive”.

With `CCc1cc(F)c(Cc2cnc(Nc3ccc(Oc4cccnc4)c(Cl)c3)o2)c(F)c1` [Compound 2b] the “fold activity boost against WT virus in comparison to 2a” value (HIV-1 IIIB (wild-type); relative to 2a) was 5 fold.

With `CCc1cc(F)c(Cc2cnc(Nc3ccc(C#N)c(Cl)c3)o2)c(F)c1` [Compound 1e] the “gain in WT potency over 1b (factor)” value (HIV-1 IIIB (wild-type); relative to 1b) was 5.

In the case of `CC(C)c1ccccc1` [isopropylbenzene], the “octanol/water log P” value [3] is listed as 3.7.

In the case of `O=C1Nc2ccc(Cl)cc2[C@@](C#CC2CC2)(C(F)(F)F)O1` [efavirenz], the “activity towards Y181C combined with Lys103Asn” value [4] is listed as “debilitated”.

With `N#Cc1ccc(Nc2ncc(Cc3c(F)cc(C4CC4)cc3F)o2)cc1Cl` [Compound 1g] the “factor less active against WT virus than 1f” value (HIV-1 IIIB (wild-type); relative to 1f) was 5 and the “fold less active towards Y181C variant than 1f” value (HIV-1 Y181C variant [5]) was 200 fold.
